Legend:
[1] = tested on: calcitonin receptor (CTR); test: cAMP accumulation (radioimmunoassay) in PC-3 CTRwt and PC-3 CTRΔESS cells; type: cell-based, human; conditions: 3 min
Procedure: PC-3CTRwt and PC-3CTRΔESS cells were treated with/without 50 nM CT for three min, washed and harvested in lysis buffer (50 mM Tris, pH 7.5, containing 5 mM EDTA, 50 mM NaF, 1 mM sodium pyrophosphate, 0.5 mM EGTA, 10 mM β-mercaptoethanol, leupeptin, 1 μg/ml; and aprotinin, 1 μg/ml). The lysates were analyzed for cAMP levels by radioimmunoassay (Perkin Elmer, Shelton, Conn.).
FIG. 1C depicts photomicrographs showing CTRwt and CTRΔESS (a mutant) localized to the plasma membrane (at 400×) in PC-3 cells. To examine the ability of CTRwt and CTRΔESS to activate its G protein-coupled effectors, the effect of 50 nM CT was examined on cAMP accumulation and PKA and PKC activity. […] FIG. 1D depicts the effect of 50 nM CT on cAMP accumulation in PC-3 CTRwt and PC-3 CTRΔESS cells stimulated with or without 50 nM CT for 3 min. The cells were lysed, and the lysates were analyzed for cAMP levels by radioimmunoassay (*p<0.01 (paired t-test)).
The effect of CT on cAMP was further tested in a dose-response study where the response to CT at multiple doses (between 0-100 nM) was examined. FIG. 1G depicts cAMP accumulation in PC-3 CTR and PC-3 CTRΔESS cells in response to CT at multiple doses (between 0-100 nM) stimulated for 3 min (*p<0.01 (One-way ANOVA and Newman-Keuls test)).

PC-3CTRΔESS cells [2] = test: Paracellular permeability (PCP), TRITC-dextran diffusion; type: cell-based
Procedure: (§1) For PCP measurements, cells were grown to confluence on Transwell filters. Tetra methyl rhodamine-dextran (1 mg/ml, ˜4 kDa, Sigma) was added to the upper chamber. Fluorescence of the lower chamber medium was measured in Modulus Microplate Reader (Turner Biosystems) at various time intervals.
(§2) TJs form a barrier that regulates the movement of ions, solutes and growth factors between cells. To detect whether CT affects the barrier, the diffusion of fluorophore-conjugated dextran was measured across polarized PC cell line monolayers, a procedure called paracellular permeability (PCP). FIG. 2B depicts CTR-C PDZ-binding motif mutation and tight junction (TJ) disruption as measured using PCP. Polarized PC-3V, PC-3-CTRwt and PC-3CTRΔESS cells were treated with or without 50 nM CT, and PCP determined by diffusion of ˜4 kDa TRITC-conjugated dextran from the upper to the lower chamber in one hour. The results are expressed as μg/ml/hour of TRITC-Dextran diffused ±SEM (n=6; *p<0.05 (−CT v +CT, One way ANOVA and Newman-Keul's test)). […] In contrast, CTRΔESS expression had little effect on PCP in the presence or absence of CT.

PC-3V cells = test: as above; type: cell-based; conditions: 50 nM CT
Procedure: as §1, §2

PC-3CTRΔESS cells [3] = test: Matrigel in vitro invasion assay; type: cell-based; conditions: 50 nM CT, 48 h
Procedure: (§3) Invasion experiments were conducted in Matrigel™ invasion chambers as previously described (Sabbisetti et al., 2005).
CT increases invasiveness, and even induces an invasive phenotype in non-invasive prostate cancer cells. The role of PDZ-binding motif in CT-stimulated invasion was examined. FIG. 2C depicts CTR-C PDZ-binding motif mutation and effects on cell invasion. PC-3V, PC-3 CTRwt and PC-3 CTRΔESS cells were added to upper insert of invasion chambers with or without 50 nM CT, and cells that passed through the Matrigel™ barrier were counted after 48 h. The results are expressed as mean number of invaded cells per 400× field ±SEM (n=6; *p<0.05 (PC-3V v PC-3CTR-wt); $ p<0.05 (PC-3CTR-wt v PC-3CTRΔESS); $$-p<0.05 (PC-3CTRwt+CT v PC-3CTRΔESS+CT) (one-way ANOVA and Newman-Keul's test)). Expression of CTRwt in PC-3 cells increased invasion by 2.5-fold (FIG. 2C).

[4] = tested on: LNCaP, DU-145 and PC-3M cells; test: Matrigel in vitro invasion assay; type: cell-based; conditions: 50 nM CT, 48 h
Procedure: as §3
Whether CT produces similar effects in LNCaP, PC-3M and DU-145 cell lines, which endogenously express CTR, was examined as shown in FIG. 1A. FIGS. 9A-9B depict the effect of CT on tight junction (TJ) disruption as measured using TER and PCP in the three prostate cancer cell lines—LNCaP, PC-3M, and DU-145. Cells were serum-starved for 4 hours, then treated with and without 50 nM CT, before measuring TER as described above. In FIG. 9B, cells were treated with and without 50 nM CT, and PCP determined by diffusion of ˜4 kDa TRITC-conjugated dextran from the upper to the lower chamber in one hour. The results are expressed as μg/ml/hour of TRITC-Dextran diffused ±SEM (n=6; *p<0.05 (−CT v +CT, One way ANOVA and Newman-Keul's test)). FIG. 9C depicts effects of CT on cell invasion in the same three cell lines—PC-3M, LNCaP, and DU145. Cells were added to upper insert of invasion chambers with or without 50 nM CT, and cells that passed through the Matrigel™ barrier were counted after 48 h. The results are expressed as mean number of invaded cells per 400× field ±SEM (n=6; *p<0.05).

PC-3CTRwt cells = test: Cell adhesion on culture dishes; type: cell-based; conditions: 50 nM CT, 1 hour
Procedure: Confluent cultures of PC-31-CTR cells were tested for cell adhesion after treatment with diluent (C), CT (50 nM), mPKI (myristoylated PKA inhibitory peptide (100 nM) or mPKI+CT. The number of adherent cells was determined by absorbance after 1 hour and are shown in the right graph.
To understand the significance of CT-induced, PKA-dependent disassembly of TJs in PC cell adhesion and invasion, the action of CT was examined on TER, PCP, cell adhesion and invasion in PC-3CTRwt cells in the presence/absence of mPKI. […] Similarly, mPKI abrogated the actions of CT on PCP and invasion (FIGS. 20B and 20C respectively). Next, the adhesion of PC-3CTRwt cells was examined on culture dishes.

Sequence of calcitonin receptor (CTR) (P30988 25-470 limits assumed): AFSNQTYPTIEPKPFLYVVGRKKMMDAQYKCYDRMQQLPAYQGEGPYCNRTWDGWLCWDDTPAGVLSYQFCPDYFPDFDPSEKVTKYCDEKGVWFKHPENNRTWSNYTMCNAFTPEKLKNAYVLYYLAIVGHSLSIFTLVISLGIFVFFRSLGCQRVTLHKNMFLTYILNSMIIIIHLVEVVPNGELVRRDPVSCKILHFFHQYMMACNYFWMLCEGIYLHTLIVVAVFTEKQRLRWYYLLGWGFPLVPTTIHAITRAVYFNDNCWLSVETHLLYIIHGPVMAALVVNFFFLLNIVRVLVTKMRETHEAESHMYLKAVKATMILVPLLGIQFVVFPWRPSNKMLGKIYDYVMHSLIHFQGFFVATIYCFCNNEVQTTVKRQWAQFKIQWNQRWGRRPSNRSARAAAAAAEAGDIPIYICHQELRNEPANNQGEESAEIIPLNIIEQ

calcitonin [CT]
cAMP accumulation ([1]; 50 nM CT, PC-3 CTRwt and PC-3CTRΔESS cells): stimulated cAMP production
cAMP accumulation, dose-response ([1]; CT 0-100 nM, CTRwt and CTRΔESS cells, all doses): significantly increased
PCP at multiple CT concentrations (PC-3CTRΔESS cells [2]; all tested concentrations): did not alter PCP
PCP (PC-3CTRΔESS cells [2]; presence or absence of 50 nM CT): little effect
PCP (PC-3V cells): did not alter it
increase in invasion (PC-3CTRΔESS cells [3]): did not
invasion [4]: significantly increased
adhesion of the cells to plastic matrix (PC-3CTRwt cells): remarkable decline
